The nature of data set [1]: Platinum content of blood, urine and terminal tissues by ICP-MS after bladder perfusion or IV bolus (Example 1). It counts as in vivo, rat.
Data set [2] relates to male Sprague Dawley rats. Put plainly: Bladder tolerability in rats: clinical observations during perfusion and tissue observations at necropsy (Example 1). It counts as in vivo, rat. The procedure:
For each drug, each test group included three male rats. The perfusate drug concentration was set to 0.3 mg/mL and the perfusion rate used was 300 μL/hour over the test periods.
Perfusion solutions were prepared by dissolving each drug substance into an appropriate volume of saline. The finals doses administered are summarized below.

A short description of data set [3]: Oxaliplatin tissue permeability: platinum in blood, urine and tissues after 72-hour bladder perfusion (Example 2). The procedure: (§1) Blood, urine, and tissue samples were collected and analyzed for drug content.
(§2) The perfusate formulation concentration was 0.308 mg/mL. Dose (mg/kg) was calculated as (Dose administered (g) x formulation concentration (mg/mL))/Animal Wt. (kg). The drug solutions were dosed over a 72-hour period into the non-fasted animal's bladder by intra-urinary bladder cannula using an infusion pump.
(§3) Whole blood samples were taken via tailnick or jugular vein cannula at the following time points following the start of perfusion: 0, 4, 8, 24, and 48 hours. Urine was collected pre-dose and for 0-24, 24-48, and 48-72-hour periods post dose.
(§4) Following the 72-hour infusion period the animals were sacrificed, terminal blood samples were taken via the abdominal aorta, and bladder, prostate, ureter, and kidney tissues were collected, weighed, and visually inspected for evidence of tolerability/reaction from exposure to the drug.

The test system of data set [4] is male Sprague Dawley rats. The note with it: 72-hour bladder perfusion. The procedure:
as §1, §2, §3, §4

[5] abbreviates: Group 1: 24-hr bladder perfusion, 0.3 mg/mL.
[6] abbreviates: Group 2: 72-hr bladder perfusion, 0.3 mg/mL.
[7] abbreviates: Group 4: IV bolus with saline perfusion via cannula.
Where [8] appears, read: 0.308 mg/mL, individual animals 47, 48, 49.

Where “and” joins values, the source holds several entries; their conditions need not be identical. Equal entries are not always repeated. Entries after “also recorded” stand apart in the source; their conditions may differ. Where two headings read alike, the source gives them in different places.

As to `N.N.O=C([O-])C1(C(=O)[O-])CCC1.[Pt+2]` [carboplatin], the “Blood profile (platinum)” value in data set [1] (IV bolus, FIG. 8) is recorded as “significant peak systemic platinum exposure followed by a sharp decay”. The “Amount in the IV bolus terminal phase as compared with cisplatin” value in data set [1] (IV bolus, blood) was “one quarter less”. Moreover, the “Therapeutic tissue platinum concentrations by intravesical perfusion” value in data set [1] (bladder perfusion 0.3 mg/mL) is “does not achieve therapeutic tissue platinum concentrations”. The “Observed plasma levels (blood profile, platinum)” value in data set [1] (bladder perfusion groups, FIG. 8) is recorded as “near the limit of the assay detection (twice the limits of detection) to below the quantitation limit”. For the same compound, the “Tissue levels (terminal platinum concentrations) compared with cisplatin” value in data set [1] (bladder perfusion, FIG. 9) is listed as “consistently less than those observed following cisplatin bladder perfusion”. Also, the “Bladder tissue concentrations relative to IC50” value in data set [1] (bladder perfusion, terminal bladder tissue) is “below the IC50 of carboplatin”. Also, the “Tissue Observations at Necropsy: bladder lumen erythemic discoloration (grade)” value is given as “Bladder lumen: slight to mild” in the data set on male Sprague Dawley rats [2] (setting [5]), “Bladder lumen: slight to mild” with male Sprague Dawley rats [2] (setting [6]) and “Bladder lumen: slight generalized” in the data set on male Sprague Dawley rats [2] (setting [7]). For the same compound, the “Tissue Observations at Necropsy: erythemic discoloration, share of lumen” value with male Sprague Dawley rats [2] (setting [5]) is reported as 10-30 % of lumen; in the data set with male Sprague Dawley rats [2] (setting [6]), 10-30 % of lumen; in the data set on male Sprague Dawley rats [2] (setting [7]) it was “erythemic discoloration, 5-10% of lumen”. Besides, the “Tissue Observations at Necropsy: evidence of tissue edema/thickened bladder walls” value in the data set with male Sprague Dawley rats [2] (setting [5]) and in the data set on male Sprague Dawley rats [2] (setting [6]) was “no” each time. In addition, the “Clinical Observations of note during Perfusion” value with male Sprague Dawley rats [2] (Group 1: 24-hr perfusion via cannula to bladder dome, 0.3 mg/mL, 300 μL/hour, 3 male rats) is given as “Normal”; in the data set on male Sprague Dawley rats [2] (Group 2: 72-hr perfusion via cannula to bladder dome, 0.3 mg/mL, 300 μL/hour, 3 male rats) it was “Normal”; with male Sprague Dawley rats [2] (Group 4: IV bolus with saline perfusion via cannula, 3 male rats), “Red tinted urine”. The “Appearance of animals during perfusion period” value in the data set with male Sprague Dawley rats [2] (all dosed animals (Groups 1, 2, 4)) was “all animals appeared normal”. Besides, the “Bladder tolerability and tissue permeability criteria (overall)” value in the data set with male Sprague Dawley rats [2] (bladder perfusion, Example 1) was “meet only one or other of these criteria”.
Regarding `N.N.[Cl][Pt][Cl]` [cisplatin], in data set [1] (rat, in vivo), the “Bladder platinum concentrations, 72 hr perfusions compared to 24 hr perfusions” value was “Significantly higher and more variable”; the “Blood profile (platinum, whole blood)” value is reported as “rising blood levels”. In addition, in the data set with male Sprague Dawley rats [2] (rat, in vivo, iv), the “Clinical Observations of note during Perfusion” value is “Normal” and the “Tissue Observations at Necropsy (overall)” value is given as “No observations”.
With `O=C1[O][Pt]2([NH][C@@H]3CCCC[C@H]3[NH]2)[O]C1=O` [oxaliplatin], the “Blood and kidney platinum concentrations, in contrast to cisplatin” value in data set [3] (72-hour bladder perfusion) is “Comparatively low”. Further, in data set [3] (72-hour bladder perfusion, FIGS. 12A-12B), the “Bladder platinum concentrations compared to cisplatin and carboplatin” value is given as “significant platinum bladder concentrations”. Further, the “Platinum concentration in the kidney or prostate” value in data set [3] (72-hour bladder perfusion, terminal tissues) was “No appreciable platinum concentration”. Besides, the “Blood concentrations (blood profile) compared with cisplatin and carboplatin” value in data set [3] (72 hour bladder perfusion, FIG. 10) is “fell between cisplatin and carboplatin”. In addition, the “Appearance of animals throughout the study” value with male Sprague Dawley rats [4] (0.308 mg/mL) is “All animals appeared normal”. In addition, the “Observations at necropsy: erythemia (animal 48: erythemia and edema) on inside wall of bladder associated with the bladder cannula” value in the data set on male Sprague Dawley rats [4] (0.308 mg/mL, individual animals 47, 48) is “bladder associated with the bladder cannula mild; also recorded: bladder associated with the bladder cannula moderate”. For the same compound, in the data set with male Sprague Dawley rats [4] (setting [8]), the “Observations at necropsy: erythemia of bladder surface (grade)” value is recorded as “Slight erythemia; also recorded: Slight erythemic”; the “Observations at necropsy: erythemia, share of surface” value is 20 % of surface (2×) and < 5 % of surface. Besides, the “Bladder tolerability and tissue permeability criteria (overall)” value in the data set with male Sprague Dawley rats [4] (Example 2) is “both bladder tolerability and tissue permeability”.

The values are drawn from patent publication US11007355B2 (TARIS Biomedical LLC, priority 2012, dated 2021).
